The values that follow come from the supplement of paper PMC10307832.

Holding throughout (test): relative viability (nuclei count vs DMSO), 5 days (fraction); higher = more cells survive
Compound in the experiment “BI-D1870 + Trametinib”: CC(C)CCN1c2nc(Nc3cc(F)c(O)c(F)c3)ncc2N(C)C(=O)C1C [BI-D1870] + CC(=O)Nc1cccc(-n2c(=O)n(C3CC3)c(=O)c3c(Nc4ccc(I)cc4F)n(C)c(=O)c(C)c32)c1 [Trametinib] (partner 0.02 µM)
An outline of the steps: (§1)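 Relative viability divides the nuclei count in treated wells by that in vehicle wells. Lung cancer cell lines were seeded in 1536-well plates, dosed by pin tool the next day, and fixed and stained after 5 days in one step with final 0.05% Triton X-100, 1% formaldehyde and 1 ug/ml Hoechst. Dosing was a single drug or a fixed anchor-drug dose plus five library-drug doses (not always all listed) in √10 steps, and values are medians of duplicate plates imaged at 4×.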

Compound in the experiment “BI-D1870 + Linsitinib”: CC(C)CCN1c2nc(Nc3cc(F)c(O)c(F)c3)ncc2N(C)C(=O)C1C [BI-D1870] + C[C@]1(O)C[C@@H](c2nc(-c3ccc4ccc(-c5ccccc5)nc4c3)c3c(N)nccn32)C1 [Linsitinib] (partner 1 µM)
Summed up: as §1

Compound in the experiment “BI-D1870 + Navitoclax”: CC(C)CCN1c2nc(Nc3cc(F)c(O)c(F)c3)ncc2N(C)C(=O)C1C [BI-D1870] + CC1(C)CCC(c2ccc(Cl)cc2)=C(CN2CCN(c3ccc(C(=O)NS(=O)(=O)c4ccc(N[C@H](CCN5CCOCC5)CSc5ccccc5)c(S(=O)(=O)C(F)(F)F)c4)cc3)CC2)C1 [Navitoclax] (partner 0.5 µM)
An outline of the steps:
as §1

Compound in the experiment “BI-D1870 + Palbociclib”: CC(C)CCN1c2nc(Nc3cc(F)c(O)c(F)c3)ncc2N(C)C(=O)C1C [BI-D1870] + CC(=O)c1c(C)c2cnc(Nc3ccc(N4CCNCC4)cn3)nc2n(C2CCCC2)c1=O [Palbociclib] (partner 0.5 µM)
Summed up:
as §1

Consider HCC-15, for which the relative viability in the experiment with BI-D1870 + Trametinib (first compound 0.04 µM) turned out to be 0.376; with BI-D1870 + Trametinib (first compound 0.1265 µM), 0.35; with BI-D1870 + Trametinib (first compound 0.4 µM), 0.371; with BI-D1870 + Trametinib (first compound 1.265 µM) it was 0.444; with BI-D1870 + Trametinib (first compound 4 µM) it was 0.392; with BI-D1870 + Linsitinib (first compound 0.04 µM), 0.89. Also, the relative viability with BI-D1870 + Linsitinib (first compound 0.1265 µM) turned out to be 0.751; with BI-D1870 + Linsitinib (first compound 0.4 µM) it was 0.772; with BI-D1870 + Linsitinib (first compound 1.265 µM) it was 0.92; in the experiment with BI-D1870 + Linsitinib (first compound 4 µM) it was 0.713; with BI-D1870 + Navitoclax (first compound 0.04 µM), 0.685; with BI-D1870 + Navitoclax (first compound 0.1265 µM) it was 0.656. In addition, the relative viability in the experiment with BI-D1870 + Navitoclax (first compound 0.4 µM) was found to be 0.681; with BI-D1870 + Navitoclax (first compound 1.265 µM), 0.721; in the experiment with BI-D1870 + Navitoclax (first compound 4 µM), 0.459; with BI-D1870 + Palbociclib (first compound 0.04 µM) it was 0.701; with BI-D1870 + Palbociclib (first compound 0.1265 µM), 0.64; with BI-D1870 + Palbociclib (first compound 0.4 µM) it was 0.722. Also, the relative viability stood at 0.746 with BI-D1870 + Palbociclib (first compound 1.265 µM) and 0.681 in the experiment with BI-D1870 + Palbociclib (first compound 4 µM).
Take HCC-44: the relative viability with BI-D1870 + Trametinib (first compound 0.04 µM) was 1.04; with BI-D1870 + Trametinib (first compound 0.1265 µM), 1.06; with BI-D1870 + Trametinib (first compound 0.4 µM), 1.07; with BI-D1870 + Trametinib (first compound 1.265 µM) it was 1.04; in the experiment with BI-D1870 + Trametinib (first compound 4 µM), 1.2; in the experiment with BI-D1870 + Linsitinib (first compound 0.04 µM), 0.718. In addition, the relative viability in the experiment with BI-D1870 + Linsitinib (first compound 0.1265 µM) came to 0.667; with BI-D1870 + Linsitinib (first compound 0.4 µM), 0.679; with BI-D1870 + Linsitinib (first compound 1.265 µM), 0.712; with BI-D1870 + Linsitinib (first compound 4 µM), 0.634; in the experiment with BI-D1870 + Navitoclax (first compound 0.04 µM), 1.04; in the experiment with BI-D1870 + Navitoclax (first compound 0.1265 µM) it was 0.944. Further, the relative viability came to 0.999 with BI-D1870 + Navitoclax (first compound 0.4 µM); 1.1 with BI-D1870 + Navitoclax (first compound 1.265 µM); 0.847 in the experiment with BI-D1870 + Navitoclax (first compound 4 µM); 0.966 with BI-D1870 + Palbociclib (first compound 0.04 µM); 0.901 with BI-D1870 + Palbociclib (first compound 0.1265 µM); 0.919 with BI-D1870 + Palbociclib (first compound 0.4 µM). For the same cell line, the results for the relative viability with BI-D1870 + Palbociclib (first compound 1.265 µM) and with BI-D1870 + Palbociclib (first compound 4 µM) were 1.01 and 0.946, respectively.
Turning to HCC-78, the relative viability with BI-D1870 + Trametinib (first compound 0.04 µM) was 0.526; with BI-D1870 + Trametinib (first compound 0.1265 µM), 0.655; with BI-D1870 + Trametinib (first compound 0.4 µM), 0.675; with BI-D1870 + Trametinib (first compound 1.265 µM), 1.03; with BI-D1870 + Trametinib (first compound 4 µM), 0.569; with BI-D1870 + Linsitinib (first compound 0.04 µM), 0.54. The relative viability with BI-D1870 + Linsitinib (first compound 0.1265 µM) was 0.547; in the experiment with BI-D1870 + Linsitinib (first compound 0.4 µM) it was 0.492; with BI-D1870 + Linsitinib (first compound 1.265 µM) it was 0.533; with BI-D1870 + Linsitinib (first compound 4 µM), 0.406; with BI-D1870 + Navitoclax (first compound 0.04 µM), 0.736; with BI-D1870 + Navitoclax (first compound 0.1265 µM), 0.825. Further, the relative viability with BI-D1870 + Navitoclax (first compound 0.4 µM) amounted to 0.81; with BI-D1870 + Navitoclax (first compound 1.265 µM), 0.987; with BI-D1870 + Navitoclax (first compound 4 µM), 0.778; with BI-D1870 + Palbociclib (first compound 0.04 µM) it was 0.456; with BI-D1870 + Palbociclib (first compound 0.1265 µM), 0.489; in the experiment with BI-D1870 + Palbociclib (first compound 0.4 µM), 0.405. For the same cell line, the figures for the relative viability with BI-D1870 + Palbociclib (first compound 1.265 µM) and in the experiment with BI-D1870 + Palbociclib (first compound 4 µM) were 0.462 and 0.454, respectively.
On to HCC-366, for which the relative viability with BI-D1870 + Trametinib (first compound 0.04 µM) turned out to be 0.347; with BI-D1870 + Trametinib (first compound 0.1265 µM), 0.311; with BI-D1870 + Trametinib (first compound 0.4 µM), 0.328; in the experiment with BI-D1870 + Trametinib (first compound 1.265 µM), 0.39; in the experiment with BI-D1870 + Trametinib (first compound 4 µM), 0.221; with BI-D1870 + Linsitinib (first compound 0.04 µM) it was 0.919. In addition, the relative viability in the experiment with BI-D1870 + Linsitinib (first compound 0.1265 µM) came to 0.538; with BI-D1870 + Linsitinib (first compound 0.4 µM), 0.53; in the experiment with BI-D1870 + Linsitinib (first compound 1.265 µM), 0.763; in the experiment with BI-D1870 + Linsitinib (first compound 4 µM), 0.623; with BI-D1870 + Navitoclax (first compound 0.04 µM) it was 1.15; with BI-D1870 + Navitoclax (first compound 0.1265 µM) it was 0.964. For the same cell line, the relative viability with BI-D1870 + Navitoclax (first compound 0.4 µM) turned out to be 1.08; with BI-D1870 + Navitoclax (first compound 1.265 µM), 1.01; with BI-D1870 + Navitoclax (first compound 4 µM) it was 1.05; with BI-D1870 + Palbociclib (first compound 0.04 µM) it was 0.422; in the experiment with BI-D1870 + Palbociclib (first compound 0.1265 µM), 0.404; with BI-D1870 + Palbociclib (first compound 0.4 µM), 0.329. In addition, the relative viability in the experiment with BI-D1870 + Palbociclib (first compound 1.265 µM) is 0.445; in the experiment with BI-D1870 + Palbociclib (first compound 4 µM) it was 0.376.
On to IA-LM, for which the relative viability stood at 0.824 with BI-D1870 + Linsitinib (first compound 0.04 µM); 0.229 with BI-D1870 + Linsitinib (first compound 0.1265 µM); 0.733 with BI-D1870 + Linsitinib (first compound 0.4 µM); 0.983 with BI-D1870 + Linsitinib (first compound 1.265 µM); 0.604 in the experiment with BI-D1870 + Linsitinib (first compound 4 µM); 0.818 in the experiment with BI-D1870 + Navitoclax (first compound 0.04 µM). Further, the relative viability was determined as 0.926 with BI-D1870 + Navitoclax (first compound 0.1265 µM), 0.764 in the experiment with BI-D1870 + Navitoclax (first compound 0.4 µM), 0.577 with BI-D1870 + Navitoclax (first compound 1.265 µM) and 0.19 in the experiment with BI-D1870 + Navitoclax (first compound 4 µM).
Take LCLC-103H: the relative viability was determined as 0.692 with BI-D1870 + Trametinib (first compound 0.04 µM); 0.616 with BI-D1870 + Trametinib (first compound 0.1265 µM); 0.653 with BI-D1870 + Trametinib (first compound 0.4 µM); 0.7 with BI-D1870 + Trametinib (first compound 1.265 µM); 0.63 with BI-D1870 + Trametinib (first compound 4 µM); 1.17 with BI-D1870 + Linsitinib (first compound 0.04 µM). Moreover, the relative viability in the experiment with BI-D1870 + Linsitinib (first compound 0.1265 µM) came to 1.02; with BI-D1870 + Linsitinib (first compound 0.4 µM), 1.05; with BI-D1870 + Linsitinib (first compound 1.265 µM), 1.36; with BI-D1870 + Linsitinib (first compound 4 µM), 1.06; with BI-D1870 + Palbociclib (first compound 0.04 µM), 0.475; with BI-D1870 + Palbociclib (first compound 0.1265 µM), 0.471. Further, the relative viability is 0.439 with BI-D1870 + Palbociclib (first compound 0.4 µM), 0.409 in the experiment with BI-D1870 + Palbociclib (first compound 1.265 µM) and 0.379 with BI-D1870 + Palbociclib (first compound 4 µM).
As to NCI-H358, the relative viability with BI-D1870 + Trametinib (first compound 0.04 µM) was 0.147; with BI-D1870 + Trametinib (first compound 0.1265 µM) it was 0.117; with BI-D1870 + Trametinib (first compound 0.4 µM), 0.136; in the experiment with BI-D1870 + Trametinib (first compound 1.265 µM), 0.153; in the experiment with BI-D1870 + Trametinib (first compound 4 µM), 0.119; with BI-D1870 + Linsitinib (first compound 0.04 µM), 0.694. For the same cell line, the relative viability with BI-D1870 + Linsitinib (first compound 0.1265 µM) was found to be 0.705; in the experiment with BI-D1870 + Linsitinib (first compound 0.4 µM), 0.812; with BI-D1870 + Linsitinib (first compound 1.265 µM) it was 0.625; with BI-D1870 + Linsitinib (first compound 4 µM), 0.381; with BI-D1870 + Palbociclib (first compound 0.04 µM), 0.121; in the experiment with BI-D1870 + Palbociclib (first compound 0.1265 µM), 0.124. Further, the relative viability was 0.117 with BI-D1870 + Palbociclib (first compound 0.4 µM), 0.128 with BI-D1870 + Palbociclib (first compound 1.265 µM) and 0.126 with BI-D1870 + Palbociclib (first compound 4 µM).
NCI-H522: the relative viability with BI-D1870 + Trametinib (first compound 0.04 µM) was 0.69; with BI-D1870 + Trametinib (first compound 0.1265 µM), 0.764; in the experiment with BI-D1870 + Trametinib (first compound 0.4 µM) it was 0.722; with BI-D1870 + Trametinib (first compound 1.265 µM), 0.836; with BI-D1870 + Trametinib (first compound 4 µM) it was 0.776; with BI-D1870 + Palbociclib (first compound 0.04 µM), 1.03. Moreover, the relative viability amounted to 1.06 with BI-D1870 + Palbociclib (first compound 0.1265 µM), 0.943 in the experiment with BI-D1870 + Palbociclib (first compound 0.4 µM), 0.975 in the experiment with BI-D1870 + Palbociclib (first compound 1.265 µM) and 0.788 with BI-D1870 + Palbociclib (first compound 4 µM).
